Results reported in ChEMBL document CHEMBL1157236, “A reassignment of (-)-mycothiazole and the isolation of a related diol” (2006).

Key:
HOP-92 = assay: Growth inhibition of human HOP92 cells; format: functional
MDA-N = assay: Growth inhibition of human MDA-N cells; format: functional
[1] = Growth inhibition of human OVACR8 cells; format: functional
NCI-H226 = assay: Growth inhibition of human NCI-H226 cells; format: functional; conditions: NCI-H226, read-out: pGI50 (converted)
[2] = Growth inhibition of human OVACR5 cells; format: functional; conditions: OVACR5, read-out: pGI50 (converted)
SK-MEL-28 = assay: Growth inhibition of human SK-MEL-28 cells; format: functional
MDA-MB-435 = assay: Growth inhibition of human MDA-MB-435 cells; format: functional
NCI-H460 = assay: Growth inhibition of human NCI-H460 cells; format: functional
SNB-75 = assay: Growth inhibition of human SNB75 cells; format: functional
UACC-257 = assay: Growth inhibition of human UACC257 cells; format: functional
SNB-19 = assay: Growth inhibition of human SNB19 cells; format: functional; conditions: SNB-19, read-out: pGI50 (converted)
SW-620 = assay: Growth inhibition of human SW620 cells; format: functional
M14 = assay: Growth inhibition of human M14 cells; format: functional
HCT-116 = assay: Growth inhibition of human HCT116 cells; format: functional
DLD-1 = assay: Growth inhibition of human DLD1 cells; format: functional
MCF7 = assay: Growth inhibition of human MCF7 cells; format: functional; conditions: MCF7, read-out: pGI50 (converted)
NCI-H322M = assay: Growth inhibition of human NCI-H322M cells; format: functional
UACC-62 = assay: Growth inhibition of human UACC62 cells; format: functional
[3] = Growth inhibition of human LXFL529 cells; format: functional; conditions: LXFL 529
DMS-114 = assay: Growth inhibition of human DMS114 cells; format: functional
KM-20L2 = assay: Growth inhibition of human KM20L2 cells; format: functional
NCI-H522 = assay: Growth inhibition of human NCI-H522 cells; format: functional
COLO 205 = assay: Growth inhibition of human COLO205 cells; format: functional
[4] = Growth inhibition of human OVACR3 cells; format: functional
CAKI-1 = assay: Growth inhibition of human CAKI1 cells; format: functional
LOX IMVI = assay: Growth inhibition of human LOX IMVI cells; format: functional
RXF 393 = assay: Growth inhibition of human […] cells; format: functional
XF498 = assay: Growth inhibition of human XF498 cells; format: functional
[5] = Growth inhibition of human RXF631 cells; format: functional; conditions: RXF 631, read-out: pGI50 (converted)
KM12 = assay: Growth inhibition of human KM12 cells; format: functional
T47D = assay: Growth inhibition of human T47D cells; format: functional; conditions: read-out: pGI50 (converted)
786-0 = assay: Growth inhibition of human 786-0 cells; format: functional; conditions: 786-0, read-out: pGI50 (converted)
DU-145 = assay: Growth inhibition of human DU145 cells; format: functional; conditions: DU-145, read-out: pGI50 (converted)
A498 = assay: Growth inhibition of human A498 cells; format: functional
SN12C = assay: Growth inhibition of human SN12C cells; format: functional; conditions: read-out: pGI50 (converted)
SF-539 = assay: Growth inhibition of human SF539 cells; format: functional; conditions: SF-539, read-out: pGI50 (converted)
[6] = Growth inhibition of human HL60(TB) cells; format: functional, HL-60(TB); conditions: HL-60
L1210 = assay: Selectivity for mouse C38 cells over mouse L1210 cells; format: functional
M19-MEL = assay: Growth inhibition of human M19-MEL cells; format: functional
SF-295 = assay: Growth inhibition of human SF295 cells; format: functional
SK-MEL-5 = assay: Growth inhibition of human SK-MEL-5 cells; format: functional
UO-31 = assay: Growth inhibition of human UO31 cells; format: functional
EKVX = assay: Growth inhibition of human EKVX cells; format: functional
ACHN = assay: Growth inhibition of human ACHN cells; format: functional
MOLT-4 = assay: Growth inhibition of human MOLT4 cells; format: functional
[7] = Growth inhibition of human […] cells; format: functional
SF-268 = assay: Growth inhibition of human SF268 cells; format: functional
SK-MEL-2 = assay: Growth inhibition of human SK-MEL-2 cells; format: functional; conditions: SK-MEL-2, read-out: pGI50 (converted)
NCI/ADR-RES = assay: Growth inhibition of human NCI/ADR-RES cells; format: functional
IGROV-1 = assay: Growth inhibition of human IGROV1 cells; format: functional
SK-OV-3 = assay: Growth inhibition of human SK-OV-3 cells; format: functional
HOP-62 = assay: Growth inhibition of human HOP62 cells; format: functional; conditions: HOP-62, read-out: pGI50 (converted)
SR = assay: Growth inhibition of human SR cells; format: functional
DMS-273 = assay: Growth inhibition of human DMS273 cells; format: functional
A549 = assay: Growth inhibition of human A549 cells; format: functional
HCC 2998 = assay: Growth inhibition of human HCC2998 cells; format: functional; conditions: HCC 2998, read-out: pGI50 (converted)
HCT-15 = assay: Growth inhibition of human HCT15 cells; format: functional
U-251 = assay: Growth inhibition of human U251 cells; format: functional
Malme-3M = assay: Growth inhibition of human MALME3M cells; format: functional; conditions: read-out: pGI50 (converted)
BT-549 = assay: Growth inhibition of human BT549 cells; format: functional
TK-10 = assay: Growth inhibition of human TK10 cells; format: functional; conditions: TK-10, read-out: pGI50 (converted)
K562 = assay: Growth inhibition of human K562 cells; format: functional
CCRF-CEM = assay: Growth inhibition of human CCRF-CEM cells; format: functional
NCI-H23 = assay: Growth inhibition of human NCI-H23 cells; format: functional
[8] = Growth inhibition of human OVACR4 cells; format: functional
HT-29 = assay: Growth inhibition of human HT29 cells; format: functional
Hs-578T = assay: Growth inhibition of human HS578T cells; format: functional; conditions: read-out: pGI50 (converted)
PC-3 = assay: Growth inhibition of human PC3 cells; format: functional; conditions: PC-3, read-out: pGI50 (converted)

C=CC/C=C\Cc1csc(C(C)(C)[C@H](O)C/C=C\C(=C)CCNC(=O)OC)n1 [MYCOTHIAZOLE]
GI50 (HOP-92): 20 µM
GI50 (MDA-N): 50.1 µM
GI50 [1]: 79.4 µM
GI50 (NCI-H226): > 100 µM
GI50 [2]: > 100 µM
GI50 (SK-MEL-28): 79.4 µM
GI50 (MDA-MB-435): 50.1 µM
GI50 (NCI-H460): 31.6 µM
GI50 (SNB-75): 39.8 µM
GI50 (UACC-257): 1.58 µM
GI50 (SNB-19): > 100 µM
GI50 (SW-620): 25.1 µM
GI50 (M14): 39.8 µM
GI50 (HCT-116): 0.631 µM
GI50 (DLD-1): 79.4 µM
GI50 (MCF7): > 100 µM
GI50 (NCI-H322M): 15.8 µM
GI50 (UACC-62): 39.8 µM
GI50 [3]: 20 µM
GI50 (DMS-114): 0.0126 µM
GI50 (KM-20L2): 50.1 µM
GI50 (NCI-H522): 20 µM
GI50 (COLO 205): 63.1 µM
GI50 [4]: 25.1 µM
GI50 (CAKI-1): 63.1 µM
GI50 (LOX IMVI): 39.8 µM
GI50 (RXF 393): 63.1 µM
GI50 (XF498): 50.1 µM
GI50 [5]: > 100 µM
GI50 (KM12): 63.1 µM
GI50 (T47D): > 100 µM
GI50 (786-0): > 100 µM
GI50 (DU-145): > 100 µM
GI50 (A498): 63.1 µM
GI50 (SN12C): > 100 µM
GI50 (SF-539): > 100 µM
GI50 [6]: 10 µM
Selectivity Index (L1210): 3
GI50 (M19-MEL): 25.1 µM
GI50 (SF-295): 1.26 µM
GI50 (SK-MEL-5): 1.26 µM
GI50 (UO-31): 79.4 µM
GI50 (EKVX): 25.1 µM
GI50 (ACHN): 50.1 µM
GI50 (MOLT-4): 39.8 µM
GI50 [7]: 31.6 µM
GI50 (SF-268): 79.4 µM
GI50 (SK-MEL-2): > 100 µM
GI50 (NCI/ADR-RES): 79.4 µM
GI50 (IGROV-1): 31.6 µM
GI50 (SK-OV-3): 79.4 µM
GI50 (HOP-62): > 100 µM
GI50 (SR): 0.501 µM
GI50 (DMS-273): 3.16 µM
GI50 (A549): 39.8 µM
GI50 (HCC 2998): > 100 µM
GI50 (HCT-15): 39.8 µM
GI50 (U-251): 79.4 µM
GI50 (Malme-3M): > 100 µM
GI50 (BT-549): 3.16 µM
GI50 (TK-10): > 100 µM
GI50 (K562): 0.794 µM
GI50 (CCRF-CEM): 31.6 µM
GI50 (NCI-H23): 0.251 µM
GI50 [8]: 63.1 µM
GI50 (HT-29): 50.1 µM
GI50 (Hs-578T): > 100 µM
GI50 (PC-3): > 100 µM
